Laboratory results from patent publication US11944112B2, “Stabilized steviol glycoside malonic acid esters” (CARGILL, INCORPORATED, priority 2020, dated 2024).
Where a SMILES comes first, the peptide text is derived from it.

Experiment: Acid-stability at pH 1.7 (percent recovered by UHPLC/UV)
Assay type: physicochemical
Conditions: water pH 1.7, room temperature (about 22° C.)
Protocol: Acid-stability measurements were taken for samples of aspartame, SGMAs, and a combination of SGMAs with the stabilizer. […] Acid-stability was measured in water having a pH of 1.7. The concentration of the aspartame or the SGMAs in the samples during the testing was 0.1 to 10 wt %. The samples were stored at room temperature (nominally about 22° C.) and samples were taken periodically. The concentration of the aspartame, SGMAs, MCQAs and DCQAs, as the case may be, was measured by UHPLC/UV then divided by the original concentration to determine a percent recovered.
FIG. 1 illustrates the results for three samples—one had 3000 ppm (0.3 wt %) aspartame, another had 5 wt % SGMAs, and the third had 5 wt % each of the SGMAs and the stabilizer. Aspartame has limited solubility, but 3000 ppm is on par with concentrations of throw syrups used to make some diet carbonated soft drinks that have about 500 ppm of aspartame. […] After 14 days of storage, the concentration of aspartame was about 78% of the initial concentration; stated another way, about 22% of the aspartame was degraded. In the same 14 days, the concentration of SGMAs in the SGMA-only sample was about 67% of the initial concentration, a degradation of about 33%. That means the SGMA degradation was 50% higher than the aspartame degradation (33% vs 22%).

With COC(=O)[C@H](Cc1ccccc1)NC(=O)[C@@H](N)CC(=O)O [aspartame] (H-Asp-Phe-OMe) the “degradation after 14 days of storage” value was “about 22%” and the “concentration as percent of the initial concentration (percent recovered) after 14 days of storage” value (3000 ppm aspartame, 5 wt % SGMAs, or 5 wt % each SGMAs and stabilizer) was “about 78%”.
